Data published in patent US4159328A, “Tetrahydro-1,3,5-thiadiazin-4-one derivative” (Nihon Nohyaku Co., Ltd., priority 1977, dated 1979).

Experiments:
Type in all cases: in vivo
[1] = test system: larvae of brown planthopper (Nilaparvata lugens Stahl); test: Test Example 1: insecticidal activity against larvae of brown planthopper; conditions: third-instar larvae, 25° C.
Outline: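 Rice seedlings at 1.5-leaf stage were dipped for 30 s in a 400 ppm test composition, air-dried, and infested with third-instar N. lugens larvae. After holding at 25 °C, mortality was scored 5 or 7 days post-treatment from three replicates.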

[2] = test system: larvae of white-backed planthopper (Sogatella furcifera Horvath); test: Test Example 2: insecticidal activity against larvae of white-backed planthopper; conditions: 168 h, 400 ppm, first-instar larvae, 25° C., seven days after treatment, read-out: Mortality
Method: Insecticidal activity against larvae of white-backed planthopper (Sogatella furcifera Horvath).
Testing method: Five rice seedlings of the 1.5 leaf age were dipped in a test composition of 400 ppm concentration for 30 seconds. After air-drying, the seedlings were placed in a glass tube containing 1 ml of water and infested with five first-instar larvae of white-backed planthopper. The glass tube was left standing in a constant temperature cabinet at 25° C. and seven days after the treatment, dead-and-survival was observed. Mortality was calculated from the results of 3-replication test.

[3] = test system: two-spotted spider mite (Tetranychus urticae Koch); test: Test Example 3: activity to two-spotted spider mite
Excerpt: Activity to two-spotted spider mite (Tetranychus urticae Koch).
Testing method: Two-spotted spider mites were set free on the pot-planted soybean in a greenhouse. On the next day, a test composition of 1,000 ppm concentration was sprayed over the soybean by means of a spray gun. Two days or five days after the treatment, dead-and-survival was inspected to calculate the mortality.

[4] = test system: cirrus red mite (Panonychus citri McGregor); test: Test Example 4: activity to citrus red mite (Rothamstead method); set-up: concentration or dose not given beside the values; conditions: two days after treatment, 25° C.; 2880 min
Method: Activity to cirrus red mite (Panonychus citri McGregor).
Testing method: The test was performed by Rothamstead method. A test composition was sprayed by means of a spray gun over grapefruit leaves infested with citrus red mites. After air-drying the grapefruit was left standing in a constant temperature cabinet at 25° C. Two days after the treatment, the number of survived mites was counted to calculate the mortality.

[5] = test system: larvae of green rice leafhopper (Nephotettix cincticeps Uhler); test: Test Example 5: activity against larvae of green rice leafhopper; conditions: 168 h, 400 ppm, second-instar larvae, 25° C., seven days after treatment, read-out: Mortality
Method: Activity against larvae of green rice leafhopper (Nephotettix cincticeps Uhler).
Testing method: Five rice seedlings of the 1.5 leaf age were dipped in a test composition of 400 ppm concentration for 30 seconds. After air-drying, the seedlings were placed in a glass tube containing 1 ml of water and infested with five second-instar larvae of green rice leafhopper. The glass tube was left standing in a constant temperature cabinet at 25° C. Seven days after the treatment, dead-and-survivalwas inspected to calculate the mortality (3-replication test).

[6] = test system: larvae of house mosquito (Culex pipiens pallens Coquillett); test: Test Example 6: insecticidal activity to larvae of house mosquito; conditions: 120 h
Method: Insecticidal activity to larvae of house mosquito (Culex pipiens pallens Coquillett).
Test method: In a 200-ml beaker, was placed together with a feed 100 ml of a test composition diluted with deionized water to 10 ppm concentration. The test composition was infested with 20 first-instar larvae of house mosquito and the beaker was covered with a sheet of Japanese paper. The beaker was kept in a constant temperature cabinet at 25° C. Five days after the treatment, the dead-and-survival was inspected to calculate the mortality.

[7] = 48 h, 1,000 ppm, 2 days after treatment

Compound	mortality at 400 ppm ([1]; 168 h, 7 days after treatment) [%]	mortality at 400 ppm [2] [%]	mortality at 1000 ppm [3, 7] [%]	Mortality [4] [%]	mortality at 400 ppm [5] [%]	mortality at 400 ppm ([1]; 5 or 7 days after treatment (No. 123 not covered by footnote)) [%]	mortality at 400 ppm ([1]; 120 h, 5 days after treatment) [%]	mortality at 1000 ppm ([3]; 120 h, 1,000 ppm, 5 days after treatment) [%]	mortality at 10 ppm [6] [%]
CCN1CSC(=NC(C)C)N(C(C)C)C1=O [Compound 8]	100	100	100	80	80				
COc1ccc(Cl)cc1N1C(=O)N(Cc2ccccc2)CSC1=NC(C)C [Compound 87]	100	100	100	100	80				
CCN1CSC(=NC(C)(C)C)N(C)C1=O [Compound 6]	100	100	100	80	80				
CC(C)N1C(=O)N(C(C)(C)C)CSC1=NC(C)(C)CC(C)(C)C [Compound 48]	100	100	100	100	80				
CN1C(=N)SCN(c2ccccc2)C1=O [Compound 123]				100		100			
CC(C)N=C1SCN(C)C(=O)N1C(C)C [Compound 2, 2-Isopropylimino-3-isopropyl-5-methyl-tetrahydro-1,3,5-thiadiazin-4-one]	100	100	100	50	50				
CN=C1SCN(C(C)(C)CC(C)(C)C)C(=O)N1c1ccccc1 [Compound 88]	100	100	100	100	80				
CN=C1SCN(C(C)C)C(=O)N1C [Compound 16]	100	100	100	100	100				
CCC(C)N1CSC(=NC(C)C)N(C)C1=O (centres unmarked) [Compound 29]	100	100	100	100	80				
CC(C)CN1CSC(=NC(C)C)N(C(C)C)C1=O [Compound 27]	100	100	80	100	80				
CN1C(=O)N(C2CCCCC2)CSC1=NC(C)(C)C [Compound 53]	80	80	100	100	50				
CCCCCCN1C(=O)N(c2ccccc2)CSC1=NC(C)C [Compound 153]				100	100				
CN=C1SCN(C(C)C)C(=O)N1c1ccc(Cl)cc1C [Compound 68]	100	100	100	50	50				
C=CCN1CSC(=NC)N(C)C1=O [Compound 9]	100	100	80	50	100				
CCCCCCN=C1SCN(c2ccc(F)cc2)C(=O)N1CCC [Compound 281]				100					
CCN=C1SCN(C(C)C)C(=O)N1CC [Compound 23]	100	100	100	80	80				
CN=C1SCN(C(C)(C)C)C(=O)N1c1ccc(F)cc1 [Compound 71]	80	80	100	50	50				
CCCCCCN1CSC(=NC(C)C)N(C(C)C)C1=O [Compound 51]	100	100	100	50	50				

Compound	mortality at 400 ppm ([1]; 168 h, 7 days after treatment) [%]	mortality at 400 ppm [2] [%]	mortality at 1000 ppm [3, 7] [%]	Mortality [4] [%]	mortality at 400 ppm [5] [%]	mortality at 400 ppm ([1]; 5 or 7 days after treatment (No. 123 not covered by footnote)) [%]	mortality at 400 ppm ([1]; 120 h, 5 days after treatment) [%]	mortality at 1000 ppm ([3]; 120 h, 1,000 ppm, 5 days after treatment) [%]	mortality at 10 ppm [6] [%]
CN=C1SCN(C(C)(C)C)C(=O)N1c1ccccc1 [Compound 69]	100	100	100	80	100				
Cc1ccccc1N=C1SCN(c2ccccc2)C(=O)N1C [Compound 124, 2-(2-Methyl)phenylimino-3-methyl-5-phenyltetrahydro-1,3,5-thiadiazin-4-one]				100					
CCCCCCCCN1CSC(=NC(C)C)N(C)C1=O [Compound 65]	100	100	100	100	50				
CC(C)N=C1SCN(C(C)(C)C)C(=O)N1c1ccccc1 [Compound 75]	100	100	80	50	50				
CCN1C(=O)N(C(C)(C)C)CSC1=NC(C)(C)C [Compound 42]	100	100	100	100	80				
CC(C)N=C1SCN(C(C)(C)C)C(=O)N1C [Compound 33]	100	100	100	100	100				
CN=C1SCN(c2ccccc2)C(=O)N1C [Compound 115, 2-Methylimino-3-methyl-5-phenyl-tetrahydro-1,3,5-thiadiazin-4-one]				100					
C=CCN1CSC(=NC(C)C)N(C)C1=O [Compound 10]	100	100	100	80	100				
CN1C(=O)N(C(C)(C)CC(C)(C)C)CSC1=NC(C)(C)C [Compound 63, 2-t-Butylimino-3-methyl-5-(1,1,3,3-tetramethyl)-butyl-tetrahydro-1,3,5-thiadiazin-4-one]	100	100	80	50	80				
CCCCN1CSC(=NC(C)C)N(C)C1=O [Compound 25]	100	100	100	80	100				
CCCN=C1SCN(Cc2ccccc2)C(=O)N1CCC [Compound 56]	80	80	100	100	50				
Cc1ccc(N=C2SCN(C(C)(C)C)C(=O)N2C)cc1 [Compound 72, 2-p-Tolylimino-3-methyl-5-t-butyl-tetrahydro-1,3,5-thiadiazin-4-one]	80	100	100	80	80				
CN=C1SCN(C(C)(C)C)C(=O)N1c1ccc(Cl)cc1C [Compound 82]	100	100	100	100	80				
CC(C)N=C1SCN(C(C)(C)CC(C)(C)C)C(=O)N1C [Compound 59]	100	100	100	100	100				
CCOc1ccc(N2CSC(=NC(C)(C)C)N(C(C)CC)C2=O)cc1 (centres unmarked) [Compound 368, 2-t-Butylimino-3-s-butyl-5-(4-ethoxyphenyl)tetrahydro-1,3,5-thiadiazin-4-one]				100			80	100	
CCCCCCCCN1C(=O)N(c2ccccc2)CSC1=NC(C)CC (centres unmarked) [Compound 161]				100					
Cc1ccc(N2CSC(=NC(C)C)N(C)C2=O)cc1 [Compound 310]				100					100
CN=C1SCN(c2ccc(C)cc2)C(=O)N1C [Compound 309]				100					
